Where two headings read alike, the source gives them in different places. Where only a bound is given, the exact number is not on record here.

This is an account of results in patent US6583150B1, “Pharmaceutical composition based on polyaromatic compounds” (Laboratorie L. Lafon, priority 1999, dated 2003).

Data set [1] in a line: Determination of the maximum tolerated dose (MTD). It is filed as in vivo. Conditions: mouse, in vivo, ip; single intraperitoneal administration, survival over 14 days, B6D2F1/Jico mice. How it is done:
(§1) The evaluation of the maximum tolerated dose was carried out on 4- to 6-week-old B6D2F1/Jico mice. […] The value of the MTD (expressed in mg/kg) is determined from observing the survival rate of the animals over a period of 14 days after a single administration of the product under consideration. The change in the weight of the animals is also monitored over this period.

Data set [2] has as its system 12 human tumor lines: U-87MG, U-373MG, SW 1088, T24, J82, HCT-15, LoVo, MCF7, T-47D, A549, A-427 and PC-3. Nature of the data set: MTT cytotoxicity test, panel of the 12 human tumor lines. It is filed as cell-based. Conditions: read-out: average IC50. How it is done:
(§2) The influence of the compounds of formulae I and II on neoplastic cells was evaluated using the MTT calorimetric test. The principle of the MTT test is based on the mitochondrial reduction by metabolically active live cells of the yellow-colored product MTT (3-(4,5-dimethylthiazol-2-yl)-2,5-diphenyltetrazolium bromide) to a blue-colored product, formazan. The amount of formazan thus obtained is directly proportional to the amount of live cells present in the culture well(s). This amount of formazan is measured by spectrophotometry.
(§3) The cell lines are maintained in monolayer culture at 37° C. in stoppered culture dishes containing 25 MM HEPES MEM (Minimum Essential Medium) base medium. This medium, which is suitable for growing a range of varied diploid or primary mammalian cells, is then supplemented: […]
(§4) with a an amount of 5% FCS (Fetal Calf Serum) decomplemented at 56° C. for 1 hour, with 0.6 mg/mL of L-glutamine, with 200 IU/mL of penicillin, with […] of streptomycin, with 0.1 mg/mL of gentamicin.
(§5) The 12 human cancer cell lines used were obtained from the American Type Culture Collection (ATCC, Rockville, Md., USA). These 12 cell lines are:
U-373MG (code ATCC: HTB-17) and U-87MG (code ATCC: HTB-14) which are two glioblastomas, SW1088 (code ATCC: HTB-12) which is an astrocytoma, A549 (code ATCC: CCL-185) and A-427 (code ATCC: HTB-53) which are two non-small-cell lung cancers, HCT-15 (code ATCC: CCL-225) and LoVo (code ATCC: CCL-229) which are two colorectal cancers, T-47D (code ATCC: HTB-133) and MCF7 (code ATCC: HTB-22) which are two breast cancers, J82 (code ATCC: HTB-1) and T24 (code ATCC: HTB-4) which are two bladder cancers, PC-3 (code ATCC: CRL-1435) which is a prostate cancer.
Experimentally: 100 μl of a cell suspension containing 200 000 to 50 000 (depending on the cell type used) cells/mL of culture medium are inoculated in flat-bottomed 96-well multi-well plates and are incubated at 37° C. under an atmosphere comprising 5% CO2 and 70% humidity. After incubating for 24 hours, the culture medium is replaced with 100 μl of fresh medium containing either the various test compounds at concentrations ranging from 10^−5 to 10^−10 M or the solvent used to dissolve the test products (control condition). After incubating for 72 hours under the above conditions, the culture medium is replaced with 100 μl of a yellowish solution of MTT dissolved at a rate of 1 mg/mL in RPMI 1640. The microplates are reincubated for 3 hours at 37° C. and then centrifuged for 10 minutes at 400×g. The yellowish solution of MTT is removed and the blue formazan crystals formed at the cellular level are dissolved in 100 μl of DMSO. The microplates are then agitated for 5 minutes. The intensity of the resulting blue coloration, and thus of the conversion of the yellow MTT product into blue formazan by the cells that are still alive at the end of the experiment is quantified by spectrophotometry using a DYNATECH IMMUNOASSAY SYSTEM machine at wavelengths of 570 nm and 630 nm corresponding, respectively, to the maximum absorption wavelengths of formazan and to the background noise. Software built into the spectrophotometer calculates the average optical density values and also the standard deviation (Std. Dev.) and standard error of mean (SEM) values.
The inhibitory activity on the cell growth of the compounds of formula I and of formula II on the different tumor cell lines was compared with that of the natural product meridine (CRL 8348). All of the compounds of formula I and of formula II show significant inhibitory activity on the cell proliferation of the 12 human tumor lines: U-87MG, U-373MG, SW 1088, T24, J82, HCT-15, LoVo, MCF7, T-47D, A549, A-427 and PC-3 with an inhibitory concentration 50 (IC50) which is between 10^−6 M and 10^−10M, depending on the compounds and the tumor lines tested. By way of example, the values of the concentrations flanking the IC50 which are obtained on the various cell lines are given in table II: […]

The subject of data set [3] is U-373MG. Nature of the data set: MTT cytotoxicity test, U-373MG. It is filed as cell-based. To be noted: Homo sapiens, U373 MG, U-373MG glioblastoma, 72 hours, read-out: concentrations flanking the IC50. How it is done:
as §2, §3, §4, §5
(§6) U-373MG (code ATCC: HTB-17) and U-87MG (code ATCC: HTB-14) which are two glioblastomas, Experimentally: 100 μl of a cell suspension containing 200 000 to 50 000 (depending on the cell type used) cells/mL of culture medium are inoculated in flat-bottomed 96-well multi-well plates and are incubated at 37° C. under an atmosphere comprising 5% CO2 and 70% humidity. […] The intensity of the resulting blue coloration, and thus of the conversion of the yellow MTT product into blue formazan by the cells that are still alive at the end of the experiment is quantified by spectrophotometry using a DYNATECH IMMUNOASSAY SYSTEM machine at wavelengths of 570 nm and 630 nm corresponding, respectively, to the maximum absorption wavelengths of formazan and to the background noise. […]

For data set [4], the system named is B6D2F1/Jico mice. As to the kind of experiment: Determination of the maximum tolerated dose (MTD). In kind it is in vivo. To be noted: single intraperitoneal administration, survival over 14 days. How it is done:
as §1

The test system of data set [5] is U-87MG. As to the kind of experiment: MTT cytotoxicity test, U-87MG. In kind it is cell-based. Conditions: Homo sapiens, U-87MG glioblastoma, 72 hours, read-out: concentrations flanking the IC50. How it is done:
as §2, §3, §4, §5, §6

The subject of data set [6] is MCF7. Nature of the data set: MTT cytotoxicity test, MCF7. In kind it is cell-based. Conditions: Homo sapiens, MCF7 breast cancer, 72 hours, read-out: concentrations flanking the IC50. How it is done: as §2, §3, §4
The 12 human cancer cell lines used were obtained from the American Type Culture Collection (ATCC, Rockville, Md., USA). These 12 cell lines are: […]

In data set [1], `O=C1c2nccc(O)c2-c2nc3ccccc3c3ccnc1c23` [CRL 8348, meridine, reference compound] had a maximum tolerated dose (MTD) at 14 days greater than 160 mg/kg. In addition, the IC50 in data set [2] (Homo sapiens) was found to be 170 nM; in data set [3] it was 100 nM.

In data set [1], `O=C(O)C(F)(F)F.O=C1c2nccc([N+](=O)[O-])c2-c2nc3ccccc3c3ccnc1c23` [CRL 8258, 12-Nitrobenzo[b]pyrido[4,3,2-de][1,7]phenanthroline-8-one Trifluoroacetate] came in with an MTD at 14 days of 40 mg/kg.

On to `O=C1c2nccc(Cl)c2C(=O)c2c(-c3ccccc3NC(=O)C(F)(F)F)ccnc21` [CRL 8250, 6-Chloro-4-(2-trifluoroacetamidophenyl)pyrido[3,2-g]-quinoline-5,10-dione], for which, in data set [1], the MTD at 14 days is 20 mg/kg.

For cystodamine [reference compound], the MTD in data set [4] is listed as greater than 160 mg/kg. For the same compound, the IC50 in data set [2] (calculated from the cytotoxic activity on the 12 tumor lines studied) is 100 nM.

Consider `O=C1c2nc(O)ccc2-c2nc3ccccc3c3ccnc1c23` [CRL 8432, 10-Hydroxybenzo[b]pyrido[4,3,2-de][1,7]phenanthroline-8-one], for which the maximal tolerated dose (MTD) at 14 days in data set [1] is greater than 160 mg/kg.

In the case of `O=C1c2nccc([N+](=O)[O-])c2-c2nc3ccccc3c3ccnc1c23` [CRL 8273, 12-Nitrobenzo[b]pyrido[4,3,2-de][1,7]phenanthroline-8-one], the MTD at 14 days in data set [1] is greater than 80 mg/kg.

With `Nc1ccnc2c1C(=O)c1c(-c3ccccc3[N+](=O)[O-])ccnc1C2=O` [CRL 8300, 6-Amino-4-(2-nitrophenyl)pyrido[3,2-g]quinoline-5,10-dione], the MTD at 14 days in data set [1] amounted to 80 mg/kg.

Compound `O=C1c2nccc(-c3ccccc3NC(=O)C(F)(F)F)c2C(=O)c2c([N+](=O)[O-])ccnc21` [CRL 8267, 6-Nitro-4-(2-trifluoroacetamidophenyl)pyrido[3,2-g]-quinoline-5,10-dione] had an MTD at 14 days in data set [1] of 20 mg/kg.

In turn, `O=C1c2nccc(Cl)c2-c2nc3ccccc3c3ccnc1c23` [CRL 8242, 12-Chlorobenzo[b]pyrido[4,3,2-de][1,7]phenanthroline-8-one] gave an MTD at 14 days in data set [1] greater than 160 mg/kg.

`CN(C)c1ccnc2c1C(=O)c1c(-c3ccccc3NC(=O)C(F)(F)F)ccnc1C2=O` [CRL 8426, 6-(Dimethylamino)-4-(2-trifluoroacetamidophenyl)pyrido-[3,2-g]quinoline-5,10-dione] gave an MTD at 14 days in data set [1] greater than 160 mg/kg.

`O=C1c2nccc(Cl)c2C(=O)c2c(-c3ccccc3[N+](=O)[O-])ccnc21` [CRL 8296, 6-Chloro-4-(2-nitrophenyl)pyrido[3,2-g]quinoline-5,10-dione] gave a maximum tolerated dose (MTD) at 14 days in data set [1] of 80 mg/kg.

For `COc1ccnc2c1-c1nc3ccccc3c3ccnc(c13)C2=O` [CRL 8276, 12-Methoxybenzo[b]pyrido[4,3,2-de][1,7]phenanthroline-8-one], the MTD at 14 days in data set [1] was 80 mg/kg. Besides, the IC50 in data set [5] is less than 0.1 nM; in data set [2] (Homo sapiens), 2.1 nM; in data set [6], less than 0.1 nM; in data set [3], less than 0.1 nM.

Consider `CN(C)c1ccnc2c1-c1nc3ccccc3c3ccnc(c13)C2=O` [CRL 8427, 12-Dimethylaminobenzo[b]pyrido[4,3,2-de][1,7]phenanthroline-8-one], for which the MTD at 14 days in data set [1] is greater than 160 mg/kg.

Take `O=C1c2nc(O)ccc2C(=O)c2c(-c3ccccc3NC(=O)C(F)(F)F)ccnc21` [CRL 8429, 8-Hydroxy-4-(2-trifluoroacetamidophenyl)pyrido[3,2-g]-quinoline-5,10-dione]: in data set [1], the MTD at 14 days was found to be 40 mg/kg.

Compound `COc1ccnc2c1C(=O)c1c(-c3ccccc3[N+](=O)[O-])ccnc1C2=O` [CRL 8243, 6-Methoxy-4-(2-nitrophenyl)pyrido[3,2-g]quinoline-5,10-dione] displayed an MTD at 14 days in data set [1] greater than 160 mg/kg.

In data set [1], `CC(=O)Nc1ccnc2c1C(=O)c1c(-c3ccccc3NC(=O)C(F)(F)F)ccnc1C2=O` [CRL 8428, 6-(Acetamido)-4-(2-trifluoroacetamidophenyl)pyrido-[3,2-g]quinoline-5,10-dione] gave an MTD at 14 days greater than 160 mg/kg.

`O=C1c2ncccc2C(=O)c2c(-c3ccccc3NC(=O)C(F)(F)F)ccnc21` [CRL 8277, 4-(2-Trifluoroacetamidophenyl)pyrido[3,2-g]quinoline-5,10-dione] gave an MTD at 14 days in data set [1] greater than 40 mg/kg. Besides, the IC50 in data set [2] (Homo sapiens) is 12.5 nM.

`O=C(O)C(F)(F)F.O=C1c2nccc(Br)c2-c2nc3ccccc3c3ccnc1c23` [CRL 8259, 12-Bromobenzo[b]pyrido[4,3,2-de][1,7]phenanthroline-8-one Trifluoroacetate] yielded an MTD at 14 days in data set [1] of 40 mg/kg.
